Measured values: PMC8058344, “ARIH1 signaling promotes anti-tumor immunity by targeting PD-L1 for proteasomal degradation” (Nature Communications, 2021)
pIC50: −log10 of the molar value.

Columns and labels:
[1] = tested on: PD-L1 in H1975 cells; test: PD-L1 levels in H1975 cells by immunoblotting and flow cytometry; type: cell-based, human; settings: H1975 cells, 10 μM ES-072 for 12 h
Procedure: Fig. 1 EGFR inhibitors were screened to reduce membrane PD-L1 levels. a High-throughput screening of 2125 FDA-approved drugs or drug candidates. U937 cells were incubated with IFNγ (100 ng/mL) for 48 h, treated with the drugs at 10 μM for 12 h. Ruxolitinib (Rux) was used as a positive control. The hit compounds that induced the decrease of PD-L1 levels are shown in blue. The depth of blue represents decreased level of PD-L1. The heatmap represents the targeted pathways obtained from the high-throughput screening, based upon decreased membrane PD-L1 level detected by flow cytometry. b Immunoblotting of PD-L1 in U937 cells treated with ES-072 (ES) or AZD9291 (AZD) at indicated concentrations for 12 h. ES and AZD are EGFR inhibitors. c, d Median fluorescence intensity (MFI) (c) and relative quantification (d) of PD-L1 in U937 cells treated with 10 μM ES-072 or 10 μM AZD9291 for 12 h. Data represent means ± SEM, n = 18, 6 independent repeats, ****P < 0.0001. e–g Immunoblotting (e, f) and flow cytometry (g) analysis of PD-L1 levels in U937 cells treated with 10 μM ES-072 or 10 μM AZD9291 for the indicated times. h, i Immunoblottings (h) of PD-L1 and β-TrCP, relative quantification (i) of PD-L1 MFI in H1975 cells transfected with non-targeting siRNA (si-CTRL) or β-TrCP siRNAs (si-β-TrCP) and treated with or without 10 μM ES-072/AZD9291 for 12 h. Data represent means ± SEM, n = 9, 3 independent repeats, NS: no significant; ****P < 0.0001. j–l Immunoblotting (j) and flow cytometry analysis (k) with relative quantification (l) of PD-L1 in H1975 cells treated with 10 μM ES-072 or AZD9291, and/or 5 μM LY2090314 (LY) for 12 h. […]
Fig. 5 GSK3α-mediated phosphorylation of PD-L1 promotes PD-L1-ARIH1 interaction and ARIH1-induced degradation. a Co-IP analysis for the interaction of K48-ubiquitin, ARIH1 (HA), and PD-L1 in HEK293T cells transfected with HA-ARIH1 and Flag-PD-L1 (WT, S279A, S283A, or 2SA), treated with MG132 (10 μM) for 6 h; HA-tagged empty vector (HA-EV) was transfected as a negative control. b Co-IP analysis for the interaction of ARIH1 and PD-L1 in HEK293T cells transfected with HA-ARIH1 and Flag-PD-L1 (WT or 2SA), treated with 10 μM ES-072 for 24 h, Flag-tagged empty vector (Flag-EV) was transfected as a negative control. c HEK293T cells were transfected with Flag-PD-L1. Co-IP analysis for the interaction of ubiquitin and PD-L1 in HEK293T cells transfected with ARIH1-siRNAs or HA-GSK3α and treated with MG132 (10 μM) for 6 h; non-targeting siRNA (si-CTRL) was transfected as a negative control. d Immunoblots of PD-L1 and ARIH1 (HA) in H1975 cells transfected with HA-ARIH1, treated with or without 5 μM LY for 6 h. e, f MFI (e) and relative quantification (f) of PD-L1 in HA-ARIH1-overexpressed H1975 cells, treated with or without 5 μM LY for 6 h. […]

[2] = target: CMET (Homo sapiens, UniProt P08581); test: In vitro kinase specificity profiling; type: biochemical
Chain of CMET (P08581 25-1390): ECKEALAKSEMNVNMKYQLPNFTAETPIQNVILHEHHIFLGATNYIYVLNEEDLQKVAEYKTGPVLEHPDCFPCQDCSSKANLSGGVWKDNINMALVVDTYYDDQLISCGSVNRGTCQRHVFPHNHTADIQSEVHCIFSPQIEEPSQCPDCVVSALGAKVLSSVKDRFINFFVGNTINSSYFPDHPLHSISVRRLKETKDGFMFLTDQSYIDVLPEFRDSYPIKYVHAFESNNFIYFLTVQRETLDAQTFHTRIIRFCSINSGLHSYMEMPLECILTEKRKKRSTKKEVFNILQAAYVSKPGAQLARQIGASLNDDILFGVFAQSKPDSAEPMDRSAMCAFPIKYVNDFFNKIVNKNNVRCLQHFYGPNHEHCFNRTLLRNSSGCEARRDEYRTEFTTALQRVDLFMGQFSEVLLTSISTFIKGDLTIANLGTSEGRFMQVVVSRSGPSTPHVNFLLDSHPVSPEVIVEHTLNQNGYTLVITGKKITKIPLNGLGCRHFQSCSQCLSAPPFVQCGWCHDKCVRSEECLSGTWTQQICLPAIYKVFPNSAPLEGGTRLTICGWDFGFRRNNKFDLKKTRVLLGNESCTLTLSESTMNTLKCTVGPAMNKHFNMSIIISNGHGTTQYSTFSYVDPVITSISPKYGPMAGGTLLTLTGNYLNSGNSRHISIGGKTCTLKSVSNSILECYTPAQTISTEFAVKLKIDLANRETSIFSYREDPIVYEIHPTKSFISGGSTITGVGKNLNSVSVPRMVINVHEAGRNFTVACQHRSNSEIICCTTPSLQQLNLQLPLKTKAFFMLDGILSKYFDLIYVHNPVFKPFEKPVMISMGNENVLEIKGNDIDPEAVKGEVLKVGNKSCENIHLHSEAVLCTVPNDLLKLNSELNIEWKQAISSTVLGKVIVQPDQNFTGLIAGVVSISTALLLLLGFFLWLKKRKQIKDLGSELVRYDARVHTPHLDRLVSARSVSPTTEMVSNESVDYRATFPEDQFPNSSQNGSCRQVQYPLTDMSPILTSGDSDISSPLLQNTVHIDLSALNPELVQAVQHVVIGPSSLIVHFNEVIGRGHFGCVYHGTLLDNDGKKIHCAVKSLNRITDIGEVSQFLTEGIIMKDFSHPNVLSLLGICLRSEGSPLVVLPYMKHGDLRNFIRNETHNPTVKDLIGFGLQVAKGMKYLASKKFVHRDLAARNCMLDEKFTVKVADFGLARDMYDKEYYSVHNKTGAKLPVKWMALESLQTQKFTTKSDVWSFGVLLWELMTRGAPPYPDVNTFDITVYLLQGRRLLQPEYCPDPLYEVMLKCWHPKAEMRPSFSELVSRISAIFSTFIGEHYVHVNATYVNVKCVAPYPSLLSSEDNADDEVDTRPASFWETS

[3] = target: CDK6 (Homo sapiens, UniProt Q00534); test: In vitro kinase specificity profiling; type: biochemical
Chain of CDK6 (Q00534 whole entry, species assumed): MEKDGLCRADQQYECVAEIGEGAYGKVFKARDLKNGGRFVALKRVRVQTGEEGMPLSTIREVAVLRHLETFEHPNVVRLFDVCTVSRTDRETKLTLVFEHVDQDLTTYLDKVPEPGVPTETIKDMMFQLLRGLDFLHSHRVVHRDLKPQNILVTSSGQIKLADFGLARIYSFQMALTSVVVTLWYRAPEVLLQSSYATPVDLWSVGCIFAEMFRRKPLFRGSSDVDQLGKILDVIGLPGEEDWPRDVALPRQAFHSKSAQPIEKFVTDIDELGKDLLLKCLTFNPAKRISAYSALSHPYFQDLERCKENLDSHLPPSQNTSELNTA
Chain of CDK6 (P30281 whole entry partner, species assumed): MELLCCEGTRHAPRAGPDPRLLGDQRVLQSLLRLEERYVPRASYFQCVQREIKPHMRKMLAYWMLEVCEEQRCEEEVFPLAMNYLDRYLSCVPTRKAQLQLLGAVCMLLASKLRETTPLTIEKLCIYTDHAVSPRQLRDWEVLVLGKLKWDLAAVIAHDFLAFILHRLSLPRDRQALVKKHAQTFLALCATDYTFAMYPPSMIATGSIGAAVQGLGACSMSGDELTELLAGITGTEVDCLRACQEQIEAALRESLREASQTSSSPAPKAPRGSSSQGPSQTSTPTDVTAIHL

Q: Which “PD-L1 level in whole cell lysate (WCL) and outer membrane protein (OMP)” value [1] does the source give for C=CC(=O)Nc1cccc(Nc2nc(Nc3ccc(N4CCN(C)CC4)nc3OC)ncc2C(F)(F)F)c1 [ES-072] here?
A: decreased

Q: And the pIC50 [2]?
A: < 5.00

Q: And the pIC50 [3]?
A: < 5.00
